In paper PMC5518309 (ChemMedChem, 2014):
Numbered stars: 1 amine (or outer) side, 2 acyl side, 3 side chain; on linkers, the order of the positions; unused ones are H or OH. Side chains are listed from the residue outwards. Ends that are not written are not given here. Peptide text beside a SMILES is read from it. * marks the point of attachment. Arachidoyl = CCCCCCCCCCCCCCCCCCCC(=O)*; γGlu = O=C(O)[C@H](CCC(=O)[*:2])N[*:1]; Palmitoyl = CCCCCCCCCCCCCCCC(=O)*; Propionyl = CCC(=O)*

Columns and labels:
Type in all cases: cell-based
[1] = target: T1, hY1R (Homo sapiens, UniProt P25929); assay: Inositol phosphate accumulation assay, hY1R; conditions: for Emax: read-out: hY1R Emax
T1 sequence (P25929 1-384): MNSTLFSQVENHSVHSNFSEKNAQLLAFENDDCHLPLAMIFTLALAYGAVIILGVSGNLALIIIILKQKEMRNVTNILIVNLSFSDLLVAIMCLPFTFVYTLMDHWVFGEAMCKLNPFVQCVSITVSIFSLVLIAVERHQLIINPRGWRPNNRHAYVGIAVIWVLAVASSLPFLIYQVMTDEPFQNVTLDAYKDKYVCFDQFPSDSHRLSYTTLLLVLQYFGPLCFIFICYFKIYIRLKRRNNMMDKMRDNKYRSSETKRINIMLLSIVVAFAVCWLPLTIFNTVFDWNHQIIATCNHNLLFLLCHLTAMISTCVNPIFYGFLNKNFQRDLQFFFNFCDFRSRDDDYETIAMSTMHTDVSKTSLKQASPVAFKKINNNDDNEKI

[2] = target: T2, hY2R (Homo sapiens, UniProt P49146); assay: Inositol phosphate accumulation assay, hY2R; conditions: for Emax: read-out: hY2R Emax
T2 sequence (P49146 1-381): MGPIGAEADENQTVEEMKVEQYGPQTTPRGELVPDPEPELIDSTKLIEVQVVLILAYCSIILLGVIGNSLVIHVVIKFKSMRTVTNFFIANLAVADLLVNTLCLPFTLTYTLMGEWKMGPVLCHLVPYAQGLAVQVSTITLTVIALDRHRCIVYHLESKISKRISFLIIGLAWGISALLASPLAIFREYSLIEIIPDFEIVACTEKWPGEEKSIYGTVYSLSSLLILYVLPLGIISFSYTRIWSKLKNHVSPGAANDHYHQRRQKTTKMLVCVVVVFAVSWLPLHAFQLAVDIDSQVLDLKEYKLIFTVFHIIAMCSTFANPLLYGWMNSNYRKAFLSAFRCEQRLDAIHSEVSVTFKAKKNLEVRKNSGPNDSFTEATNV

[3] = target: T3, hY5R (Homo sapiens, UniProt Q15761); assay: Inositol phosphate accumulation assay, hY5R; conditions: for Emax: read-out: hY5R Emax
T3 sequence (Q15761 1-445): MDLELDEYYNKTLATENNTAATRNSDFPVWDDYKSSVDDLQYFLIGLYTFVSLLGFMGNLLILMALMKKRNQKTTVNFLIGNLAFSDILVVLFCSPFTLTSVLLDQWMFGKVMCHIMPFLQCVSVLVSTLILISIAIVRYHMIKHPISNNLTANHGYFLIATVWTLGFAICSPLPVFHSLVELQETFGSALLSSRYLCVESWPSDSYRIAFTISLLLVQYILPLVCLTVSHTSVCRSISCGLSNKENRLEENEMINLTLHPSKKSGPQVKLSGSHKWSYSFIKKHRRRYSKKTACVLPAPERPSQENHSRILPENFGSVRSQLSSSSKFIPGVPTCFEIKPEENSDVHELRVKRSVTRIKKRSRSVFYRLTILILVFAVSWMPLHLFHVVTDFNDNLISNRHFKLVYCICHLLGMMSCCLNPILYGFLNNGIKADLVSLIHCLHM

[4] = target: hY4R (Homo sapiens, UniProt P50391); assay: Inositol phosphate accumulation assay, hY4R; conditions: for Emax: read-out: hY4R Emax
Chain of hY4R (P50391 whole entry): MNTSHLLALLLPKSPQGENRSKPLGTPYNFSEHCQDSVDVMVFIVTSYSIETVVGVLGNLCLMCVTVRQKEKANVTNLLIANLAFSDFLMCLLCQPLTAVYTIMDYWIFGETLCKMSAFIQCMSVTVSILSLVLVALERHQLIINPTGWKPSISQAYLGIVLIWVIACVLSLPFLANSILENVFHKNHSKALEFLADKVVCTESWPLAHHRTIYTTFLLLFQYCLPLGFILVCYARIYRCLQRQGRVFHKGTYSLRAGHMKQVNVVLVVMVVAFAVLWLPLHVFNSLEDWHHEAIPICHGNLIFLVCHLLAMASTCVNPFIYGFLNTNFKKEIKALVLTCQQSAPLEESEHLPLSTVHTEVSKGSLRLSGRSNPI

Molecule	EC50 [1] [nM]	Emax [1] [%]	EC50 [2] [nM]	Emax [2] [%]	EC50 [3] [nM]	Emax [3] [%]	EC50 [4] [nM]	Emax [4] [%]
CCCCCCCCCCCCCCCCCCCC(=O)N[C@@H](CCC(=O)NCCCC[C@H](NC(=O)[C@H](CC(N)=O)NC(=O)[C@@H](NC(=O)[C@H](Cc1ccc(O)cc1)NC(=O)[C@H](CCCNC(=N)N)NC(=O)[C@H](CCCNC(=N)N)NC(=O)[C@H](CC(C)C)NC(=O)[C@H](CC(=O)O)NC(=O)[C@H](C)NC(=O)[C@H](C)NC(=O)[C@H](Cc1ccc(O)cc1)NC(=O)[C@H](CCC(N)=O)NC(=O)[C@H](C)NC(=O)[C@H](CCSC)NC(=O)[C@H](CCC(N)=O)NC(=O)[C@H](CCC(=O)O)NC(=O)[C@@H]1CCCN1C(=O)[C@@H](NC(=O)[C@H](C)NC(=O)[C@H](CC(N)=O)NC(=O)[C@H](CC(=O)O)NC(=O)CNC(=O)[C@@H]1CCCN1C(=O)[C@H](Cc1ccc(O)cc1)NC(=O)[C@@H](NC(=O)[C@@H]1CCCN1C(=O)[C@H](CCC(=O)O)NC(=O)[C@H](CC(C)C)NC(=O)[C@@H]1CCCN1)C(C)C)[C@@H](C)O)[C@@H](C)CC)C(=O)N[C@@H](CC(C)C)C(=O)N[C@H](C(=O)N[C@@H](CCCNC(=N)N)C(=O)N1CCC[C@H]1C(=O)N[C@@H](CCCNC(=N)N)C(=O)N[C@@H](Cc1ccc(O)cc1)C(N)=O)[C@@H](C)O)C(=O)O [compound 19, [K^30(E-Ara)]hPP2–36] (H-PLEPVYPGDNATPEQMAQYAADLRRYINK([γGlu-Arachidoyl])LTRPRY-NH2)	25.1	98 ± 4	4.9	88 ± 5	0.6	69 ± 10	2.5	84 ± 7
PLEPVYPGDNATPEQMAQYAKDLRRYINMLTRPRY-NH2 [compound 8, [K^22]hPP2–36]	51.4	101 ± 7	67.1	107 ± 4	6.1	89 ± 5	1.9	91 ± 3
CCCCCCCCCCCCCCCC(=O)N[C@@H](CCC(=O)NCCCC[C@H](NC(=O)[C@H](C)NC(=O)[C@H](Cc1ccc(O)cc1)NC(=O)[C@H](CCC(N)=O)NC(=O)[C@H](C)NC(=O)[C@H](CCSC)NC(=O)[C@H](CCC(N)=O)NC(=O)[C@H](CCC(=O)O)NC(=O)[C@@H]1CCCN1C(=O)[C@@H](NC(=O)[C@H](C)NC(=O)[C@H](CC(N)=O)NC(=O)[C@H](CC(=O)O)NC(=O)CNC(=O)[C@@H]1CCCN1C(=O)[C@H](Cc1ccc(O)cc1)NC(=O)[C@@H](NC(=O)[C@@H]1CCCN1C(=O)[C@H](CCC(=O)O)NC(=O)[C@H](CC(C)C)NC(=O)[C@@H]1CCCN1)C(C)C)[C@@H](C)O)C(=O)N[C@@H](CC(=O)O)C(=O)N[C@@H](CC(C)C)C(=O)N[C@@H](CCCNC(=N)N)C(=O)N[C@@H](CCCNC(=N)N)C(=O)N[C@@H](Cc1ccc(O)cc1)C(=O)N[C@H](C(=O)N[C@@H](CC(N)=O)C(=O)N[C@@H](CCSC)C(=O)N[C@@H](CC(C)C)C(=O)N[C@H](C(=O)N[C@@H](CCCNC(=N)N)C(=O)N1CCC[C@H]1C(=O)N[C@@H](CCCNC(=N)N)C(=O)N[C@@H](Cc1ccc(O)cc1)C(N)=O)[C@@H](C)O)[C@@H](C)CC)C(=O)O [compound 12, [K^22(E-Pam)]hPP2–36] (H-PLEPVYPGDNATPEQMAQYAK([γGlu-Palmitoyl])DLRRYINMLTRPRY-NH2)	16.5	93 ± 6	1.7	103 ± 12	1.9	81 ± 6	1.5	78 ± 4
CCCCCCCCCCCCCCCCCCCC(=O)N[C@@H](CCC(=O)NCCCC[C@H](NC(=O)[C@H](C)NC(=O)[C@H](Cc1ccc(O)cc1)NC(=O)[C@H](CCC(N)=O)NC(=O)[C@H](C)NC(=O)[C@H](CCSC)NC(=O)[C@H](CCC(N)=O)NC(=O)[C@H](CCC(=O)O)NC(=O)[C@@H]1CCCN1C(=O)[C@@H](NC(=O)[C@H](C)NC(=O)[C@H](CC(N)=O)NC(=O)[C@H](CC(=O)O)NC(=O)CNC(=O)[C@@H]1CCCN1C(=O)[C@H](Cc1ccc(O)cc1)NC(=O)[C@@H](NC(=O)[C@@H]1CCCN1C(=O)[C@H](CCC(=O)O)NC(=O)[C@H](CC(C)C)NC(=O)[C@@H]1CCCN1)C(C)C)[C@@H](C)O)C(=O)N[C@@H](CC(=O)O)C(=O)N[C@@H](CC(C)C)C(=O)N[C@@H](CCCNC(=N)N)C(=O)N[C@@H](CCCNC(=N)N)C(=O)N[C@@H](Cc1ccc(O)cc1)C(=O)N[C@H](C(=O)N[C@@H](CC(N)=O)C(=O)N[C@@H](CCSC)C(=O)N[C@@H](CC(C)C)C(=O)N[C@H](C(=O)N[C@@H](CCCNC(=N)N)C(=O)N1CCC[C@H]1C(=O)N[C@@H](CCCNC(=N)N)C(=O)N[C@@H](Cc1ccc(O)cc1)C(N)=O)[C@@H](C)O)[C@@H](C)CC)C(=O)O [compound 13, [K^22(E-Ara)]hPP2–36] (H-PLEPVYPGDNATPEQMAQYAK([γGlu-Arachidoyl])DLRRYINMLTRPRY-NH2)	11.3	101 ± 6	0.9	90 ± 5	0.8	75 ± 6	2.7	93 ± 6
CCC(=O)N[C@@H](CCC(=O)NCCCC[C@H](NC(=O)[C@H](C)NC(=O)[C@H](Cc1ccc(O)cc1)NC(=O)[C@H](CCC(N)=O)NC(=O)[C@H](C)NC(=O)[C@H](CCSC)NC(=O)[C@H](CCC(N)=O)NC(=O)[C@H](CCC(=O)O)NC(=O)[C@@H]1CCCN1C(=O)[C@@H](NC(=O)[C@H](C)NC(=O)[C@H](CC(N)=O)NC(=O)[C@H](CC(=O)O)NC(=O)CNC(=O)[C@@H]1CCCN1C(=O)[C@H](Cc1ccc(O)cc1)NC(=O)[C@@H](NC(=O)[C@@H]1CCCN1C(=O)[C@H](CCC(=O)O)NC(=O)[C@H](CC(C)C)NC(=O)[C@@H]1CCCN1)C(C)C)[C@@H](C)O)C(=O)N[C@@H](CC(=O)O)C(=O)N[C@@H](CC(C)C)C(=O)N[C@@H](CCCNC(=N)N)C(=O)N[C@@H](CCCNC(=N)N)C(=O)N[C@@H](Cc1ccc(O)cc1)C(=O)N[C@H](C(=O)N[C@@H](CC(N)=O)C(=O)N[C@@H](CCSC)C(=O)N[C@@H](CC(C)C)C(=O)N[C@H](C(=O)N[C@@H](CCCNC(=N)N)C(=O)N1CCC[C@H]1C(=O)N[C@@H](CCCNC(=N)N)C(=O)N[C@@H](Cc1ccc(O)cc1)C(N)=O)[C@@H](C)O)[C@@H](C)CC)C(=O)O [compound 9, [K^22(E-Prop)]hPP2–36] (H-PLEPVYPGDNATPEQMAQYAK([γGlu-Propionyl])DLRRYINMLTRPRY-NH2)	> 1000	92 ± 4	> 1000	88 ± 6	21.9	83 ± 2	1.1	96 ± 6

More lines, now with the values ahead:

EC50 [1] [nM]	Emax [1] [%]	EC50 [2] [nM]	Emax [2] [%]	EC50 [3] [nM]	Emax [3] [%]	EC50 [4] [nM]	Emax [4] [%]	Molecule
> 1000	93 ± 5			23.9	79 ± 4	1.4	95 ± 4	PLEPVYPGDNATPEQMAQYAADLRRYINKLTRPRY-NH2 [14a, [K^30]hPP2–36]
	95 ± 3		96 ± 5		90 ± 5			CC[C@H](C)[C@H](NC(=O)[C@H](Cc1ccc(O)cc1)NC(=O)[C@H](CCCNC(=N)N)NC(=O)[C@H](CCCNC(=N)N)NC(=O)[C@H](CC(C)C)NC(=O)[C@H](CC(=O)O)NC(=O)[C@H](C)NC(=O)[C@H](C)NC(=O)[C@H](Cc1ccc(O)cc1)NC(=O)[C@H](CCC(N)=O)NC(=O)[C@H](C)NC(=O)[C@H](CCSC)NC(=O)[C@H](CCC(N)=O)NC(=O)[C@H](CCC(=O)O)NC(=O)[C@@H]1CCCN1C(=O)[C@@H](NC(=O)[C@H](C)NC(=O)[C@H](CC(N)=O)NC(=O)[C@H](CC(=O)O)NC(=O)CNC(=O)[C@@H]1CCCN1C(=O)[C@H](Cc1ccc(O)cc1)NC(=O)[C@@H](NC(=O)[C@@H]1CCCN1C(=O)[C@H](CCC(=O)O)NC(=O)[C@H](CC(C)C)NC(=O)[C@@H]1CCCN1C(=O)[C@H](C)N)C(C)C)[C@@H](C)O)C(=O)N[C@@H](CC(N)=O)C(=O)N[C@@H](CCSC)C(=O)N[C@@H](CC(C)C)C(=O)N[C@H](C(=O)N[C@@H](CCCNC(=N)N)C(=O)N1CCC[C@H]1C(=O)N[C@@H](CCCNC(=N)N)C(=O)N[C@@H](Cc1ccc(O)cc1)C(N)=O)[C@@H](C)O [1a, hPP, reference compound]
